# Measurements reported in patent publication US10266497B2 (ABIDE THERAPEUTICS, INC., priority 2017, dated 2019).
# How the values were obtained:
# MAGL [1] = biological target: T1, MAGL (Mus musculus, UniProt O35678); assay: In vitro competitive activity-based protein profiling, MAGL, mouse; conditions: read-out: MAGL % inh. 1 μM (mouse)
# T1 sequence (O35678 1-303): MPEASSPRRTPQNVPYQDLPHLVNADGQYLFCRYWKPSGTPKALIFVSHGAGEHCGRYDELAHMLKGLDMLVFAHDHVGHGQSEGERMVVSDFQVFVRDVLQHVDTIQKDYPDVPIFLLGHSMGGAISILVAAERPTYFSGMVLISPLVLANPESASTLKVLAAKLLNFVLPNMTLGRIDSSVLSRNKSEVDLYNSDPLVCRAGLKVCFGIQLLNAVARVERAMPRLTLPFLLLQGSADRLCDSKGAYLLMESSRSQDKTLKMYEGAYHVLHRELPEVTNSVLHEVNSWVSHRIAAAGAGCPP
# Method: Biological Evaluation In Vitro Competitive Activity-Based Protein Profiling.
# Proteomes (mouse brain membrane fraction for mouse assays; human prefrontal cortex membrane fractions for human assays) (50 mL, 1.0 mg/mL total protein concentration) were preincubated with varying concentrations of inhibitors at 37° C. After 30 min, FP-Rh (1.0 mL, 50 mM in DMSO) was added and the mixture was incubated for another 30 min at 37° C. Reactions were quenched with SDS loading buffer (15 μL—4λ) and run on SDS-PAGE.
# MAGL [2] = biological target: T2, MAGL (Homo sapiens, UniProt Q99685); assay: In vitro competitive activity-based protein profiling, MAGL, human; conditions: for inhibition at 1 µM: read-out: MAGL % inh. 1 μM (human)
# T2 sequence (Q99685 1-303): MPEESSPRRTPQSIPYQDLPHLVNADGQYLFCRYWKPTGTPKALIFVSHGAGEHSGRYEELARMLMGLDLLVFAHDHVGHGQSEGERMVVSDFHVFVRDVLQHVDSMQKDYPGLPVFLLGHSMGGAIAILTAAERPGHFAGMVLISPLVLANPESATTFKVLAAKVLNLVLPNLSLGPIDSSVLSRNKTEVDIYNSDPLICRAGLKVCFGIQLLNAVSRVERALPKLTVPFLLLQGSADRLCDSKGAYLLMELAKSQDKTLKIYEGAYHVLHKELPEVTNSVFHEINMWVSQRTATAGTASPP
Compound,inhibition at 1 µM (MAGL [1]),inhibition at 1 µM (MAGL [2]),inhibition at 10 µM (MAGL [2]; read-out: MAGL % inh. (human) at 10 uM)
"Cc1cn(C(=O)N2C[C@H]3C[C@H](OCc4cccc(C(F)(F)F)c4C)C[C@H]3C2)nc1C(=O)O [Example 306, 4-methyl-1-(trans-5-((2-methyl-3-(trifluoromethyl)benzyl)oxy)octa-hydrocyclopenta[c]pyrrole-2-carbonyl)-1H-pyrazole-3-carboxylic acid]",> 75%,> 75%,–
"O=C(O)c1ccn(C(=O)N2CCC3(CCN(Cc4cccc(C(F)(F)F)c4)CC3)C2)n1 [Example 287, 1-(8-(3-(trifluoromethyl)benzyl)-2,8-diazaspiro[4.5]decane-2-carbonyl)-1H-pyrazole-3-carboxylic acid]",0 to 25%,25 to 50%,–
"C[C@H]1CN(Cc2cc(F)cc(Oc3ccccc3Cl)c2)CCN1C(=O)n1ccc(C(=O)O)n1 [Example 349, (S)-1-(4-(3-(2-chlorophenoxy)-5-fluorobenzyl)-2-methylpiperazine-1-carbonyl)-1H-pyrazole-3-carboxylic acid]",> 75%,> 75%,–
"O=C(O)c1ccn(C(=O)N2C[C@H]3C[C@H](Oc4ccccc4-c4cccnc4)C[C@H]3C2)n1 [Example 244, 1-(trans-5-(2-(pyridin-3-yl)phenoxy)octa-hydrocyclopenta[c]pyrrole-2-carbonyl)-1H-pyrazole-3-carboxylic acid]",> 75%,> 75%,–
"Cc1c(CN2CCC3(CCN(C(=O)n4ccc(C(=O)O)n4)CC3)C2)cccc1-c1ccccc1 [Example 322, 1-(2-((2-methyl-[1,1′-biphenyl]-3-yl)methyl)-2,8-diazaspiro[4.5]decane-8-carbonyl)-1H-pyrazole-3-carboxylic acid]",> 75%,> 75%,–
"O=C(O)c1ccn(C(=O)N2CCC(OCc3cc(Cl)cc(Cl)c3)CC2)n1 [Example 224, 1-(4-((3,5-dichlorobenzyl)oxy)piperidine-1-carbonyl)-1H-pyrazole-3-carboxylic acid]",> 75%,> 75%,–
"O=C(O)c1ccn(C(=O)N2C[C@H]3C[C@H](Oc4ccc(Cl)c(-c5nccs5)c4)C[C@H]3C2)n1 [Example 318, 1-(trans-5-(4-chloro-3-(thiazol-2-yl)phenoxy)octa-hydrocyclopenta[c]pyrrole-2-carbonyl)-1H-pyrazole-3-carboxylic acid]",> 75%,> 75%,–
"Cc1cn(C(=O)N2C[C@H]3C[C@H](Oc4ccccc4-c4ccccc4)C[C@H]3C2)nc1C(=O)O [Example 281, 1-(trans-5-([1,1′-biphenyl]-2-yloxy)octahydro-cyclopenta[c]pyrrole-2-carbonyl)-4-methyl-1H-pyrazole-3-carboxylic acid]",> 75%,> 75%,–
"O=C(O)c1ccn(C(=O)N2CCN(Cc3ccc(C(F)(F)F)cc3N3CC4CCC(C3)O4)CC2)n1 [Example 380, 1-(4-(2-(8-oxa-3-azabicylco[3.2.1]octan-3-yl)-4-(trifluoromethyl)benzyl)piperazine-1-carbonyl)-1H-pyrazole-3-carboxylic acid]",> 75%,> 75%,–
"O=C(O)c1ccn(C(=O)N2C[C@H]3C[C@H](OCc4ccc(Cl)c(-c5nccs5)c4)C[C@H]3C2)n1 [Example 345, 1-(trans-5-((4-chloro-3-(thiazol-2-yl)benzyl)oxy)octa-hydrocyclopenta[c]pyrrole-2-carbonyl)-1H-pyrazole-3-carboxylic acid]",> 75%,> 75%,–
"O=C(O)c1ccn(C(=O)N2CCC3(CCN(Cc4cccc(Cl)c4C(F)(F)F)C3)CC2)n1 [Example 340, 1-(2-(3-chloro-2-(trifluoromethyl)benzyl)-2,8-diazaspiro[4.5]decane-8-carbonyl)-1H-pyrazole-3-carboxylic acid]",> 75%,> 75%,–
"O=C(O)c1ccn(C(=O)N2C[C@H]3C[C@H](Oc4cc(F)cc(Cl)c4)C[C@H]3C2)n1 [Example 222, 1-(trans-5-(3-chloro-5-fluorophenoxy)octa-hydrocyclopenta[c]pyrrole-2-carbonyl)-1H-pyrazole-3-carboxylic acid]",> 75%,> 75%,–
"NC(=O)c1ccn(C(=O)N2CCC3(CCCN3C(=O)c3cc4ccc(C(F)(F)F)cc4s3)CC2)n1 [Example 389, 1-(1-(6-(trifluoromethyl)benzo[b]thiophene-2-carbonyl)-1,8-diazaspiro[4.5]decane-8-carbonyl)-1H-pyrazole-3-carboxamide]",> 75%,> 75%,–
"O=C(O)c1ccn(C(=O)N2CCC3(CCN(Cc4cccc(Cl)c4Cl)C3)CC2)n1 [Example 286, 1-(2-(2,3-dichlorobenzyl)-2,8-diazaspiro[4.5]decane-8-carbonyl)-1H-pyrazole-3-carboxylic acid]",> 75%,> 75%,–
"O=C(O)c1ccn(C(=O)N2CCN(Cc3cccc(Oc4ccnc(C(F)(F)F)c4)c3)CC2)n1 [Example 355, 1-(4-(3-((2-(trifluoromethyl)pyridin-4-yl)oxy)benzyl)piper-azine-1-carbonyl)-1H-pyrazole-3-carboxylic acid]",> 75%,> 75%,–
"O=C(O)c1ccn(C(=O)N2CCC3(CCCN3Cc3ccc(C(F)(F)F)cc3N3CC4COCC4C3)CC2)n1 (stereo not shown) [Example 415, 1-(1-(2-(tetrahydro-1H-furo[3,4-c]pyrrol-5(3H)-yl)-4-(trifluoromethyl)benzyl)-1,8-diazaspiro[4.5]decane-8-carbonyl)-1H-pyrazole-3-carboxylic acid]",> 75%,> 75%,–
"CN(Cc1cccc(C(F)(F)F)c1)C1(C)CCN(C(=O)n2ccc(C(N)=O)n2)CC1 [Example 258, 1-(4-methyl-4-(methyl(3-(trifluoromethyl)benzyl)amino)piper-idine-1-carbonyl)-1H-pyrazole-3-carboxamide]",> 75%,> 75%,–
"O=C(O)c1ccn(C(=O)N2C[C@H]3C[C@H](Oc4ccccc4-c4ccccc4)C[C@H]3C2)n1 [Example 239, 1-(trans-5-([1,1′-biphenyl]-2-yloxy)octahydro-cyclopenta[c]pyrrole-2-carbonyl)-1H-pyrazole-3-carboxylic acid]",> 75%,> 75%,–
"O=C(O)c1ccn(C(=O)N2CCC3(CCN(Cc4cc(Cl)ccc4N4CCC4)C3)CC2)n1 [Example 317, 1-(2-(2-(azetidin-1-yl)-5-chlorobenzyl)-2,8-diazaspiro[4.5]decane-8-carbonyl)-1H-pyrazole-3-carboxylic acid]",> 75%,> 75%,–
"O=C(O)c1nn(C(=O)N2CCN(Cc3cccc(Oc4ccc(F)cc4)c3)CC2)cc1Cl [Example 320, 4-chloro-1-(4-(3-(4-fluorophenoxy)benzyl)piperazine-1-carbonyl)-1H-pyrazole-3-carboxylic acid]",> 75%,> 75%,–
"Cc1cc(O[C@H]2C[C@@H]3CN(C(=O)n4ccc(C(=O)O)n4)C[C@@H]3C2)ccc1C(F)(F)F [Example 254, 1-(trans-5-(3-methyl-4-(trifluoromethyl)phenoxy)octahydro-cyclopenta[c]pyrrole-2-carbonyl)-1H-pyrazole-3-carboxylic acid]",> 75%,> 75%,–
"Cc1cn(C(=O)N2CCC3(CCN(Cc4cc(Cl)cc(Cl)c4)C3)CC2)nc1C(=O)O [Example 316, 1-(2-(3,5-dichlorobenzyl)-2,8-diazaspiro[4.5]decane-8-carbonyl)-4-methyl-1H-pyrazole-3-carboxylic acid]",> 75%,> 75%,–
"O=C(O)c1ccn(C(=O)N2CCC3(CCN(Cc4ccc(Cl)c(N5CC6COCC6C5)c4)C3)CC2)n1 (stereo not shown) [Example 401, 1-(2-(4-chloro-3-(tetrahydro-1H-furo[3,4-c]pyrrol-5(3H)-yl)benzyl)-2,8-diazaspiro[4.5]decane-8-carbonyl)-1H-pyrazole-3-carboxylic acid]",0 to 25%,25 to 50%,–
"O=C(O)c1ccn(C(=O)N2CCC3(CCN(Cc4ccc(N5CC6COCC6C5)cc4Cl)C3)CC2)n1 (stereo not shown) [Example 400, 1-(2-(2-chloro-4-(tetrahydro-1H-furo[3,4-c]pyrrol-5(3H)-yl)benzyl)-2,8-diazaspiro[4.5]decane-8-carbonyl)-1H-pyrazole-3-carboxylic acid]",0 to 25%,–,> 75%
"O=C(O)c1nn(C(=O)N2CCN(Cc3cccc(Oc4cc(C(F)(F)F)ccn4)c3)CC2)cc1Cl [Example 399, 4-chloro-1-(4-(3-((4-(trifluoromethyl)pyridin-2-yl)oxy)benzyl)piper-azine-1-carbonyl)-1H-pyrazole-3-carboxylic acid]",> 75%,> 75%,–
"Cc1c(COC2CCN(C(=O)n3ccc(C(=O)O)n3)CC2)cccc1C(F)(F)F [Example 235, 1-(4-((2-methyl-3-(trifluoromethyl)benzyl)oxy)piper-idine-1-carbonyl)-1H-pyrazole-3-carboxylic acid]",> 75%,> 75%,–
